In assay [1] the test system is GADD34 mRNA in HCT116 cells. Nature of the assay: qPCR of GADD34 transcript. The assay is classed as cell-based, Homo sapiens. The conditions noted are these: HCT116, 100 nM for 24 hours, norm to GAPDH. For orientation: In qPCR the cycle at which signal appears reflects the starting amount.
Assay [2] concerns PARP / caspase 8 / caspase 3 in HCT116 cells. Nature of the assay: Western blot of HCT116 lysates (PARP, caspase 8 and caspase 3 cleavage, DR5 level). It counts as cell-based, Homo sapiens. The conditions noted are these: HCT116, 24 hr, titration of construct. On the procedure: Media and cells for each sample were collected by cell scraping into cold PBS followed by a subsequent wash with 1 ml of cold PBS. The cell pellet was then resuspended in cold lysis buffer (30 mM HEPES pH 7.2, 150 mM NaCl, 1% Triton X100, 1x Roche protease inhibitor) and lysed via needle shearing on ice. Samples were centrifuged at 1000xg for 5 min, and the supernatants were mixed with sample buffer to a final concentration of 1% SDS, 62.5 mM Tris-HCl pH 6.8, 10% glycerol, 0.1% bromophenol blue, 50 mM DTT. Samples were boiled at 95°C and loaded on SDS-PAGE gels (GenScript). Samples were subsequently transferred onto nitrocellulose membranes, blocked with Odyssey buffer (Licor) for 1 hr at RT, and probed with primary antibodies diluted 1:1000 (unless otherwise specified) in Licor Odyssey buffer supplemented with 0.1% Tween 20% at 4°C overnight.
Bound primary antibodies were probed by HRP-conjugated secondary antibodies (Amersham, Piscataway, NJ, 1:10000) using enhanced chemiluminescence (SuperSignal; Thermo Scientific, Waltham, MA) detected by standard film or through the ChemiDoc XRS+ Imaging System (Bio-Rad).
On the technique in general: In western blotting, separated proteins are transferred to a membrane and probed.

For `C/C=C(/C)C(=O)O[C@H]1C(C)=C2[C@H]([C@@H]1OC(=O)CCCCCCC)[C@@](C)(OC(C)=O)C[C@H](OC(=O)CCC)[C@@]1(O)[C@H]2OC(=O)[C@@]1(C)O` [thapsigargin, reference compound], the “avg. fold induction, GADD34” value in assay [1] was determined as 11.3183.
As to “FTWRYQPEGGRDAISIFHYA [MPZ-ecto peptide-eGFP, expressed construct: MPZ ectodomain replaced by the MPZ-ecto peptide, GFP-tagged]”, the “PARP cleavage and caspase activity” value in assay [2] is “induced more PARP cleavage and caspase activity than similar or higher levels of the peptides containing Glu substitutions”; in assay [2] (listed as WT MPZ-ecto) it was “PARP cleavage and caspase activity measured in cell lysates were increased”.

For the origin of these results see paper PMC7041945, “Misfolded proteins bind and activate death receptor 5 to trigger apoptosis during unresolved endoplasmic reticulum stress” (eLife, 2020).
